According to patent US12187709B2 (Genentech, Inc., priority 2021, dated 2025):

Assays:
Cbl-b = Cbl-b (Homo sapiens (Human), UniProt Q13191); experiment: Cbl-b LCK Ub TR-FRET assay (Cbl-b Lck HTRF); type: biochemical; settings: for IC50: Cbl-b LCK Ub TR-FRET; for (fold-selectivity) Cbl-b and C-Cbl Selectivity / fold-selectivity (Cbl-b over C-cbl): ratio C-cbl Lck HTRF IC50 / Cbl-b Lck HTRF IC50
Outline: (§1)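 After the ubiquitination reaction, detection mixture was added and plates incubated 20 min at room temperature before reading. IC50 values were calculated with wells lacking LCK as the low control and DMSO as the high control.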

c-Cbl = c-Cbl (Homo sapiens (Human), UniProt P22681); experiment: C-Cbl LCK Ub TR-FRET assay (C-cbl Lck HTRF); type: biochemical
Outline: as §1

[1] = target: Human Cbl-b (residues 40-426) (Homo sapiens (Human), UniProt Q13191); experiment: Cbl-b SPR assay; type: binding; settings: for Fold of selectivity: C-cbl SPR Kd vs Cbl-b SPR Kd; for Kd: SPR, 20° C.
Outline: (§2)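 First, protein is captured to 1300-1500 RU. Then compound runs in single cycle kinetics, a blank plus 5 two-fold concentrations up to 500 nM (120 s contact, 50 μl/min, 450 s dissociation). Chaser injections (20 s, 30 μl/min) track occupancy, giving kd, which is fixed when fitting the titration.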

c-Cbl (residues 47-435) = c-Cbl (residues 47-435) (Homo sapiens (Human), UniProt P22681); experiment: c-Cbl SPR assay; type: binding; settings: 20° C.
Outline: as §2

Sequence of Human Cbl-b (residues 40-426) (Q13191 40-426): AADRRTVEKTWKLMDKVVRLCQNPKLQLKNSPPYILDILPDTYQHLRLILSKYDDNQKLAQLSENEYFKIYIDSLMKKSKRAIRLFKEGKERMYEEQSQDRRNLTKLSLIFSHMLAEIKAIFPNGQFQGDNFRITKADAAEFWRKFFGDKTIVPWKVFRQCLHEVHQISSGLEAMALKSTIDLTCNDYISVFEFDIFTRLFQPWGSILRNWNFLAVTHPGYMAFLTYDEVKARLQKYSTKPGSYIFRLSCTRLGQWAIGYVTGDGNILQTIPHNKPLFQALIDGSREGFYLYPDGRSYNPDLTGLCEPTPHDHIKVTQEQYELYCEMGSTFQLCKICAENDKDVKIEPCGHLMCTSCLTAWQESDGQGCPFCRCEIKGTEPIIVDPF
Sequence of Cbl-b (Q13191 40-426): as above
Sequence of c-Cbl (residues 47-435) (P22681 47-435): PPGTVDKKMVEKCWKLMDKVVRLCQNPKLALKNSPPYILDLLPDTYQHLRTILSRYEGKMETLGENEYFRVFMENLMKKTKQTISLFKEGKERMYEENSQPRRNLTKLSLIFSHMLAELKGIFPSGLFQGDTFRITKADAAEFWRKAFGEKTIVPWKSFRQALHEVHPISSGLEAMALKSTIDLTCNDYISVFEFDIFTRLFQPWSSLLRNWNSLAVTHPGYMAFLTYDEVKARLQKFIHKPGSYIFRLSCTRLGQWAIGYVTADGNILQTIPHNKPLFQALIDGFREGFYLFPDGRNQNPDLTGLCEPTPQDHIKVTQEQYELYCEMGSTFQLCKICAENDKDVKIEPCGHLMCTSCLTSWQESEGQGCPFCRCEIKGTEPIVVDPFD
Sequence of c-Cbl (P22681 47-435): as above

SMILES | IC50 (Cbl-b; Example 121) [µM] | (fold-selectivity) Cbl-b and C-Cbl Selectivity (Cbl-b) [x] | IC50 (c-Cbl) [µM] | Fold of selectivity [1] [×] | Kd [1] [µM] | Kd (c-Cbl (residues 47-435)) [µM] | IC50 (Cbl-b) [µM] | fold-selectivity (Cbl-b over C-cbl) (Cbl-b) [x]
Cn1cnnc1C1(c2cccc(N3Cc4c(cc(C(CF)NC5(C)CCC5)cc4C(F)(F)F)C3=O)c2)CCC1 (stereo not drawn) [Compound 453, 6-(2-fluoro-1-((1-methylcyclobutyl)amino)ethyl)-2-(3-(1-(4-methyl-4H-1,2,4-triazol-3-yl)cyclobutyl)phenyl)-4-(trifluoromethyl)isoindolin-1-one] | 0.0066 | 1.7 | 0.011 | 2.8 | 0.0017 | 0.0048 | – | –
CO[C@H]1C[C@](c2cccc(N3Cc4c(cc(CNCC5(CF)CCC5)cc4C(F)(F)F)C3=O)c2)(c2nncn2C)C1 [Compound 507, 6-((((1-(fluoromethyl)cyclobutyl)methyl)amino)meth-yl)-2-(3-((1r,3r)-3-methoxy-1-(4-methyl-4H-1,2,4-triazol-3-yl)cyclobutyl)phenyl)-4-(trifluoromethyl)isoindolin-1-one] | 0.0093 | 4.5 | 0.042 | 15 | 0.0035 | 0.052 | – | –
Cn1cnnc1[C@]1(c2cccc(N3Cc4c(cc(CNC5(C)CCC5)cc4C(F)(F)F)C3=O)c2)C[C@@H](OC2CC2)C1 [Compound 450, 2-(3-((1r,3r)-3-cyclopropoxy-1-(4-methyl-4H-1,2,4-triazol-3-yl)cyclobutyl)phenyl)-6-(((1-methylcyclobutyl)amino)methyl)-4-(trifluoromethyl)isoindolin-1-one] | 0.0058 | 4.0 | 0.023 | 7.2 | 0.0026 | 0.019 | – | –
CO[C@H]1C[C@](c2cccc(N3Cc4c(cc(CN5CC(C)(O)C5)cc4C(F)(F)F)C3=O)c2)(c2nncn2C)C1 [Compound 478, 6-((3-hydroxy-3-methylazetidin-1-yl)methyl)-2-(3-((1r,3r)-3-methoxy-1-(4-methyl-4H-1,2,4-triazol-3-yl)cyclobutyl)phenyl)-4-(trifluoromethyl)isoindolin-1-one] | 0.13 | 6.4 | 0.84 | 8.7 | 0.12 | 1.1 | – | –
CO[C@H]1C[C@](c2cccc(N3Cc4c(cc(CNCC(C)(C)C)cc4C(F)(F)F)C3=O)c2)(c2nncn2C)C1 [Compound 481, 2-(3-((1r,3r)-3-methoxy-1-(4-methyl-4H-1,2,4-triazol-3-yl)cyclobutyl)phenyl)-6-((neopentylamino)methyl)-4-(trifluoromethyl)isoindolin-1-one] | 0.0062 | 4.0 | 0.025 | 18 | 0.0015 | 0.027 | – | –
Cn1cnnc1[C@@H](c1cccc(N2Cc3c(Cl)cc(CNC4(C)CCC4)cc3C2=O)c1)[C@H]1C[C@@H](F)C1 [Compound 317, 4-chloro-2-(3-((R)-((1s,3S)-3-fluorocylcobutyl)(4-methyl-4H-1,2,4-triazol-3-yl)methyl)phenyl)-6-(((1-methylcyclobutyl)amino)methyl)isoindolin-1-one] | – | – | 1.1 | 15 | 0.1 | 1.5 | 0.17 | 6.5
CO[C@H]1C[C@](c2cc(OC3CCCC3)cc(N3Cc4c(cc(CNC5(C)CCC5)cc4C(F)(F)F)C3=O)c2)(c2nncn2C)C1 [Compound 212, 2-(3-(cyclopentyloxy)-5-((1r,3r)-3-methoxy-1-(4-methyl-4H-1,2,4-triazol-3-yl)cyclobutyl)phenyl)-6-(((1-methylcyclobutyl)amino)methyl)-4-(trifluoromethyl)isoindolin-1-one] | – | – | 0.39 | 4.8 | 0.11 | 0.53 | 0.15 | 2.6
CO[C@H]1C[C@](c2cccc(N3Cc4c(cc(CNC56CC(C5)C6)cc4C(F)(F)F)C3=O)c2)(c2nncn2C)C1 [Compound 485, 6-((bicyclo[1.1.1]pentan-1-ylamino)methyl)-2-(3-((1r,3r)-3-methoxy-1-(4-methyl-4H-1,2,4-triazol-3-yl)cyclobutyl)phenyl)-4-(trifluoromethyl)isoindolin-1-one] | 0.013 | 5.2 | 0.067 | 14 | 0.0074 | 0.11 | – | –
COC[C@H]1C[C@@](c2cccc(N3Cc4c(cc(CNC5(C)CCC5)cc4C(F)(F)F)C3=O)c2)(c2nncn2C)C1 [Compound 103, 2-(3-((1s,3s)-3-(methoxymethyl)-1-(4-methyl-4H-1,2,4-triazol-3-yl)cyclobutyl)phenyl)-6-(((1-methylcyclobutyl)amino)methyl)-4-(trifluoromethyl)isoindolin-1-one] | – | – | 0.026 | 7.8 | 0.0016 | 0.012 | 0.014 | 1.7
Cn1cnnc1C1(c2cc(NCCC#N)nc(N3Cc4c(cc(CNC5(C)CCC5)cc4C(F)(F)F)C3=O)c2)CC2(COC2)C1 [Compound 187, 3-((4-(6-(4-methyl-4H-1,2,4-triazol-3-yl)-2-oxaspiro[3.3]heptan-6-yl)-6-(6-(((1-methylcyclobutyl)amino)methyl)-1-oxo-4-(trifluoromethyl)isoindolin-2-yl)pyridin-2-yl)amino)propanenitrile] | – | – | 0.022 | 15 | 0.00095 | 0.015 | 0.011 | 1.0
Cn1cnnc1[C@H](c1cccc(N2Cc3c(cc(CNC4(C)CCC4)cc3C(F)(F)F)C2=O)c1)C1CC(OCC(F)F)C1 (single isomer, unassigned) [Compound 263] | – | – | 0.018 | 5.4 | 0.0019 | 0.01 | 0.01 | 1.8
CO[C@H]1C[C@](c2cccc(N3Cc4c(cc(CN5CC6(CC6)C5)cc4C(F)(F)F)C3=O)c2)(c2nncn2C)C1 [Compound 423, 6-(5-azaspiro[2.3]hexan-5-ylmethyl)-2-(3-((1r,3r)-3-methoxy-1-(4-methyl-4H-1,2,4-triazol-3-yl)cyclobutyl)phenyl)-4-(trifluoromethyl)isoindolin-1-one] | 0.1 | 5.0 | 0.5 | 8.7 | 0.096 | 0.84 | – | –
C[C@H](NC1(C)CCC1)c1cc2c(c(C(F)(F)F)c1)CN(c1cccc([C@@H](c3nncn3C)C3COC3)c1)C2=O (single isomer, unassigned) [Compound 442] | 0.26 | 11 | 2.8 | 18 | 0.18 | 3.3 | – | –
CO[C@H]1C[C@](c2cccc(N3Cc4c(cc(CN[C@@H]5C[C@H]5C)cc4C(F)(F)F)C3=O)c2)(c2nncn2C)C1 [Compound 502, 2-(3-((1r,3R)-3-methoxy-1-(4-methyl-4H-1,2,4-triazol-3-yl)cyclobutyl)phenyl)-6-((((1R,2R)-2-methylcyclopropyl)amino)methyl)-4-(trifluoromethyl)isoindolin-1-one] | 0.0094 | 4.1 | 0.039 | 14 | 0.005 | 0.069 | – | –
CC(=O)N1CC([C@@H](c2cccc(N3Cc4c(cc(CNC5(C)CCC5)cc4C(F)(F)F)C3=O)c2)c2nncn2C)C1 (single isomer, unassigned) [Compound 402] | – | – | 2.5 | 3.4 | 0.89 | 2.8 | 0.58 | 4.3
CO[C@H]1C[C@](c2cccc(N3Cc4c(cc(CNC5COC5)cc4C(F)(F)F)C3=O)c2)(c2nncn2C)C1 [Compound 476, 2-(3-((1r,3r)-3-methoxy-1-(4-methyl-4H-1,2,4-triazol-3-yl)cyclobutyl)phenyl)-6-((oxetan-3-ylamino)methyl)-4-(trifluoromethyl)isoindolin-1-one] | 0.082 | 7.1 | 0.57 | 11 | 0.095 | 1.1 | – | –
CO[C@H]1C[C@](c2cc(NCCC#N)cc(N3Cc4c(cc(CNC5(C)CCC5)cc4C(F)(F)F)C3=O)c2)(c2nncn2C)C1 [Compound 216, 3-((3-((1r,3r)-3-methoxy-1-(4-methyl-4H-1,2,4-triazol-3-yl)cyclobutyl)-5-(6-(((1-methylcyclobutyl)amino)methyl)-1-oxo-4-(trifluoromethyl)isoindolin-2-yl)phenyl)amino)propanenitrile] | – | – | 0.061 | 11 | 0.0047 | 0.051 | 0.014 | 4.2
Cn1cnnc1[C@@H](c1cc(F)cc(N2Cc3c(cc(CNC4(C)CCC4)cc3C(F)(F)F)C2=O)c1)C1COC1 (single isomer, unassigned) [Compound 152] | – | – | 0.052 | 6.5 | 0.0087 | 0.059 | 0.018 | 2.9
